Tests used:
Format in all cases: in vivo
[1] = system: Japanese pear (variety "Kosui") fruit; test: Quality deterioration of Japanese pear (Kosui) fruit after storage, Example 3; conditions: 1 ppm, after storage 25 degrees C 2 weeks
Experimental: Using a Japanese pear (variety “Kosui”) fruit (6 fruits were used per group) as an agricultural product, the following experiment was performed.
(§1) 1) A fruit and 1-methylcyclopropene (concentration 1 ppm in a chamber) were placed into a sealed chamber, and contact-treated for 16 hours under a normal pressure.
(§2) 2) A fruit was placed into a sealed chamber, and a pressure in the chamber was reduced to 25.0 kPa. Subsequently, 1-methylcyclopropene was placed therein to the concentration in the chamber of 1 ppm, and contact-treated for 1 minute under the reduced pressure (25.0 kPa).
(§3) The fruit which had been subjected to treatment of the above-mentioned 1) or 2) was stored at 25 degrees C for 2 weeks, and hardness of flesh and pH of a fruit juice which is an index for the content of an acid were measured. In addition, an extent of storage disorder was assessed by tasting. Contact treatment of the above-mentioned 1) or 2) was performed on a day of harvesting a fruit. In addition, also regarding a fruit undergoing no treatment of 1) or 2) (non-treatment), similar storage was performed, and the above-mentioned index was measured and assessed. Further, regarding non-treated fruit, the above-mentioned index before storage was also measured and assessed. Different alpha characters in Table 3 indicate that a significant difference was recognized at a risk rate of 5% (multiple range test of Newman-Keuls).

[2] = system: peach (variety "Akatsuki") fruit; test: Quality deterioration of peach (Akatsuki) fruit after storage, Example 8; conditions: 1 ppm, after storage 25 degrees C 5 days, treated on day of harvest
Experimental: Using a peach (variety “Akatsuki”) fruit (6 fruits were used per group) as an agricultural product, the following experiment was performed.
1) A fruit and 1-methylcyclopropene (concentration in a chamber 1 ppm) were placed into a sealed chamber, and contact-treated for 12 hours under a normal pressure.
as §2, with “kPa). Then, the pressure was returned to a normal pressure, and contact treatment was carried out for 12 hours while the concentration of 1-methylcyclopropene in the chamber was maintained at 1 ppm.” for “kPa).”
The fruit which had been subjected to treatment of the above-mentioned 1) or 2) was stored at 25 degrees C for 5 days, and hardness of flesh was measured. In addition, contact treatment of the above-mentioned 1) or 2) was performed on a day for harvesting of a fruit. In addition, also regarding a fruit undergoing no treatment of 1) or 2) (non-treatment), similar storage was performed, and the above-mentioned index was measured. Further, regarding a non-treated fruit, the above-mentioned index before storage was also measured. […]

[3] = system: Japanese pear (variety "Shinsei") fruit; test: Quality deterioration of Japanese pear (Shinsei) fruit after storage, Example 2; conditions: 1 ppm, after storage 25 degrees C 2 weeks
Experimental: Using a Japanese pear (variety “Shinsei”) fruit (6 fruits were used per group) as an agricultural product, the following experiment was performed.
as §1
2) A fruit was placed into a sealed chamber, and a pressure in the chamber was reduced to 12.5 kPa. Subsequently, 1-methylcyclopropene was placed therein to the concentration in the chamber of 1 ppm, and contact-treated for 1 minute or 10 minutes under the reduced pressure (12.5 kPa).
as §3, with “In addition, browning of flesh and fruit core, which is an index for an extent” for “In addition, an extent”, “assessed by naked eyes. Contact treatment” for “assessed by tasting. Contact treatment”, “characters in the same column after storage indicate that” for “characters in Table 3 indicate that”

[4] = system: Japanese pear (variety "Shinsei") fruit; test: Quality deterioration of Japanese pear (Shinsei) fruit after storage, Example 1; conditions: 1 ppm, after storage 25 degrees C 2 weeks
Experimental: Using a Japanese pear (variety “Shinsei”) fruit (6 fruits were used per group) as an agricultural product, the following experiment was preformed.
1) A fruit and 1-methylcyclopropene (concentration 1 ppm (parts per million) in a chamber) were placed into a sealed chamber (volume 30L, same in the following Examples), and contact-treated for 1 hour or 16 hours under a normal pressure.
2) A fruit was placed into a sealed chamber, and a pressure in the chamber was reduced to 12.5 kPa. Subsequently, 1-methylcyclopropene was placed therein to the concentration in the chamber of 1 ppm, and contact-treated for 30 minutes or 1 hour under the reduced pressure (12.5 kPa).
The fruit which had been subjected to treatment of above-mentioned 1) or 2) was stored at 25 degrees C for 2 weeks, and hardness of flesh and pH of a fruit juice which is an index for the content of an acid were measured. In addition, browning of flesh and fruit core, which is an index for an extent of storage disorder was assessed by naked eyes. Contact treatment of the above-mentioned 1) or 2) was performed on a day of harvesting a fruit. In addition, also regarding a fruit undergoing no treatment of 1) or 2) (non-treatment), similar storage was performed, and the above-mentioned index was measured and assessed. Further, regarding non-treated fruit, the above-mentioned index before storage was also measured and assessed. Different alpha characters in Table indicate that a significant difference was recognized at a risk rate of 5% (multiple range test of Newman-Keuls). In Tables showing the results of the following Examples 1 to 10, “1-MCP” denotes 1-methylcyclopropene.

[5] = Reduced pressure (25.0 kPa) 1 minute
[6] = Reduced pressure (12.5 kPa) 1 minute
[7] = Reduced pressure (12.5 kPa) 10 minutes
[8] = Reduced pressure (12.5 kPa) 30 minutes
[9] = Reduced pressure (12.5 kPa) 1 hour

## CC1=CC1 [1-MCP, 1-methylcyclopropene]
[1]; Normal pressure 16 hours
  Hardness of flesh: 22.44 N
  Tasting: Better
  pH of fruit juice: 5.22a
[1]; [5]
  Hardness of flesh: 21.36 N
  Tasting: Better
  pH of fruit juice: 5.57b
[2]; Normal pressure 12 hours after reduced pressure (25.0 kPa) 1 minute
  Hardness of flesh: 6.18b N
[2]; Normal pressure 12 hours
  Hardness of flesh: 2.84a N
[3]; Normal pressure 16 hours
  Hardness of flesh: 22.74c N
  Presence or absence of browning: Absence
  pH of fruit juice: 4.92a
[3]; [6]
  Hardness of flesh: 18.72b N
  Presence or absence of browning: Absence
  pH of fruit juice: 4.90a
[3]; [7]
  Hardness of flesh: 22.25c N
  Presence or absence of browning: Absence
  pH of fruit juice: 5.00ab
[4]; Normal pressure 1 hour
  Hardness of flesh: 16.46a N
  Presence or absence of browning: Presence
  pH of fruit juice: 5.07
[4]; Normal pressure 16 hours
  Hardness of flesh: 21.17b N
  Presence or absence of browning: Absence
  pH of fruit juice: 5.07
[4]; [8]
  Hardness of flesh: 20.58b N
  Presence or absence of browning: Slight
  pH of fruit juice: 5.10
[4]; [9]
  Hardness of flesh: 20.97b N
  Presence or absence of browning: Absence
  pH of fruit juice: 4.97

Reference: US20040192554A1, “Technique for effectively treating an agricultural product with a 1-substituted-cyclopropene” (priority 2003, published 2004)
